Measured values reported in patent US20260356856A1, “KRAS G12S AND G12C INHIBITORS” (MIRATI THERAPEUTICS, INC., priority 2023, published 2026).

How the values were obtained:
[1] = target: T1, KRas-mediated phosphorylation of ERK in H358 cells (Homo sapiens, UniProt P01116, G12C); experiment: Inhibition of KRas-mediated phosphorylation of ERK (HTRF), H358 cells; assay type: cell-based; details: HTRF pERK, 3 h incubation
T1 construct: pERK HTRF read-out

[2] = target: T2, KRas-mediated phosphorylation of ERK in MKN1 cells (Homo sapiens, UniProt P01116); experiment: Inhibition of KRas-mediated phosphorylation of ERK (HTRF), MKN1 cells; assay type: cell-based; details: MKN1 cells (KRas WT); HTRF pERK; 3 h incubation
T2 construct: pERK HTRF read-out
T2 sequence (P01116 1-188 isoform P01116-2): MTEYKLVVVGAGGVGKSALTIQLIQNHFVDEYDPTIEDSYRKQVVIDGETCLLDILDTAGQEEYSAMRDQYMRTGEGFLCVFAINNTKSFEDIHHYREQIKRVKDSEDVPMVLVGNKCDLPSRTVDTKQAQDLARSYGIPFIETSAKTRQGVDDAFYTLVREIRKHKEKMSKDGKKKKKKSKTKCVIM
Procedure: Inhibition of KRas Phosphorylation of ERK (HTRF) by Exemplary Compounds of Formula (Ia) or (Ib)
Cisbio HTRF Advanced pERK Assay Catalog #64AERPEH • Cells: MKN1, PSN1 • Procedure: • 1. Day 1: Seed 6,000 cells/well −25 μl/well in 384-well white solid bottom plate; RPM1_10% FBS. Incubate overnight at 37 °C/5% CO2. • 2.

KRas G12C = target: T3, KRas G12C (Homo sapiens, UniProt P01116, G12C); experiment: KRas binding assay, TR-FRET displacement of Cy5 labelled tracer; details: 60-minute incubation at room temperature, 1% DMSO, pH 7.5
T3 construct: Biotinylated KRas (corresponding to amino acids 1-169, produced at Accelegan Inc.); biotin (biotinylated); purchased Accelegan Inc
T3 sequence (P01116 1-169 isoform P01116-2 G12C): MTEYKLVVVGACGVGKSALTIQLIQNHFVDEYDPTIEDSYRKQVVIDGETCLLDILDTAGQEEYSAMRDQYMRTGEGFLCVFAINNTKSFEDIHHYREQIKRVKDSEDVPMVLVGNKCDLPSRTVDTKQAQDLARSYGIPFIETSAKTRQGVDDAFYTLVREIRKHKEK
Procedure, shortened: (§1)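 TR-FRET tracer-displacement readout after 60 min at room temperature, using KRas residues 1-169 (biotinylated) with terbium streptavidin and a Cy5 tracer. Buffer: 50 mM HEPES pH 7.5, 5 mM MgCl2, 0.005% Tween-20, 1 mM DTT, 1% DMSO final. IC50 from 4-parameter fit of POC data.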

KRas WT = target: T4, KRas WT (Homo sapiens, UniProt P01116); experiment: as above; details: 60-minute incubation at room temperature, 1% DMSO, pH 7.5
T4 construct: Biotinylated KRas (corresponding to amino acids 1-169, produced at Accelegan Inc.); biotin (biotinylated); purchased Accelegan Inc
T4 sequence (P01116 1-169 isoform P01116-2): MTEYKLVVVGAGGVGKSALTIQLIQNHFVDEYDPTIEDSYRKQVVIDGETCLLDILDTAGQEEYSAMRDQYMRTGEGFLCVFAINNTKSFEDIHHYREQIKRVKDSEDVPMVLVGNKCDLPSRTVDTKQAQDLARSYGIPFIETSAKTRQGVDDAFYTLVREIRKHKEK
Procedure, shortened: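 Biotinylated KRas (aa 1-169) incubated with Cy5-labelled tracer, terbium streptavidin and compound (1% DMSO final) in 50 mM HEPES pH 7.5, 5 mM MgCl2, 0.005% Tween-20, 1 mM DTT. Tracer displacement read by TR-FRET after 60 min at room temperature; POC values fitted to 4-parameter IC50 equation.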

KRas G12S = target: T5, KRas G12S (Homo sapiens, UniProt P01116, G12S); experiment: as above; details: 60-minute incubation at room temperature, 1% DMSO, pH 7.5
T5 construct: Biotinylated KRas (corresponding to amino acids 1-169, produced at Accelegan Inc.); biotin (biotinylated); purchased Accelegan Inc
T5 sequence (P01116 1-169 isoform P01116-2 G12S): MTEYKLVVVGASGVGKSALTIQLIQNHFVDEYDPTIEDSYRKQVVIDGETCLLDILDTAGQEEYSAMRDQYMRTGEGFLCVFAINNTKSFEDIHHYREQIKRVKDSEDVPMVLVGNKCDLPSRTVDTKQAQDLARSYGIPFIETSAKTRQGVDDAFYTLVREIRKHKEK
Procedure, shortened: as §1

[3] = target: T6, KRas-mediated phosphorylation of ERK in A549 cells (Homo sapiens, UniProt P01116, G12S); experiment: Inhibition of KRas-mediated phosphorylation of ERK (HTRF), A549 cells; assay type: cell-based; details: HTRF pERK, 3 h incubation
T6 construct: pERK HTRF read-out
T6 sequence (P01116 1-188 isoform P01116-2 G12S): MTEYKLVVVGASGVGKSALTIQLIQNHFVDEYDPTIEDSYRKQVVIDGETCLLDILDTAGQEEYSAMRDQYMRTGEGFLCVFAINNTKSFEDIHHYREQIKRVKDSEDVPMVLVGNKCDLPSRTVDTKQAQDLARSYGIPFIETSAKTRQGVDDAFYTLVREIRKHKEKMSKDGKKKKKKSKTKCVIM

T1 sequence (P01116 1-188 isoform P01116-2 G12C): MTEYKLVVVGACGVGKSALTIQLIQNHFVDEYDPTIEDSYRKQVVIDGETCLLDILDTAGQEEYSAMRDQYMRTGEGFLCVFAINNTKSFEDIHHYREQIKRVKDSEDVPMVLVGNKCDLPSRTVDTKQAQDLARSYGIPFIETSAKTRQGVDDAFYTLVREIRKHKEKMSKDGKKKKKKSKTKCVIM

| Structure (SMILES) | IC50 [1] [nM] | IC50 [2] [nM] | IC50 (KRas G12C) [nM] | IC50 (KRas WT) [nM] | IC50 (KRas G12S) [nM] | IC50 [3] [nM] |
| --- | --- | --- | --- | --- | --- | --- |
| CCc1c(F)ccc2cc(O)cc(-c3ncc4c(N5CCC(C(=O)Oc6ccccc6)CC5)nc(OC[C@@]56CCCN5C[C@H](F)C6)nc4c3F)c12 [Example 39, phenyl 1-(7-(8-ethyl-7-fluoro-3-hydroxynaphthalen-1-yl)-8-fluoro-2-(((2R,7aS)-2-fluorotetrahydro-1H-pyrrolizin-7a(5H)-yl)methoxy)pyrido[4,3-d]pyrimidin-4-yl)piperidine-4-carboxylate] | 808 | 1360 | 13 | 195 | 1590 | 6550 |
| CCc1c(F)ccc2cc(O)cc(-c3ncc4c(N5CCCCC(C(=O)n6ccc(C)n6)CC5)nc(OC[C@@]56CCCN5C[C@H](F)C6)nc4c3F)c12 (stereo partly drawn) [Example 53, (1-(7-(8-ethyl-7-fluoro-3-hydroxynaphthalen-1-yl)-8-fluoro-2-(((2R,7aS)-2-fluorotetrahydro-1H-pyrrolizin-7a(5H)-yl)methoxy)pyrido[4,3-d]pyrimidin-4-yl)azocan-4-yl)(3-methyl-1H-pyrazol-1-yl)methanone] | 88 | 305 | 7 | 77 | 2 | 16 |
| CCc1c(F)ccc2cc(O)cc(-c3ncc4c(N5CCCC(C(=O)n6ccc(C)n6)CCC5)nc(OC[C@@]56CCCN5C[C@H](F)C6)nc4c3F)c12 [Example 54, (1-(7-(8-ethyl-7-fluoro-3-hydroxynaphthalen-1-yl)-8-fluoro-2-(((2R,7aS)-2-fluorotetrahydro-1H-pyrrolizin-7a(5H)-yl)methoxy)pyrido[4,3-d]pyrimidin-4-yl)azocan-5-yl)(3-methyl-1H-pyrazol-1-yl)methanone] | 1420 | 2420 | 502 | 483 | 266 | 334 |
| CCc1c(F)ccc2cc(O)cc(-c3ncc4c(N5CCCCCC(C(=O)n6ccc(C)n6)C5)nc(OC[C@@]56CCCN5C[C@H](F)C6)nc4c3F)c12 (stereo partly drawn) [Example 55, (1-(7-(8-ethyl-7-fluoro-3-hydroxynaphthalen-1-yl)-8-fluoro-2-(((2R,7aS)-2-fluorotetrahydro-1H-pyrrolizin-7a(5H)-yl)methoxy)pyrido[4,3-d]pyrimidin-4-yl)azocan-3-yl)(3-methyl-1H-pyrazol-1-yl)methanone] | 90 | 50 | 5 | 7 | 28 | 116 |
| CCc1c(F)ccc2cc(O)cc(-c3ncc4c(N5CCC(C(=O)n6cc(C)cn6)CC5)nc(OC[C@@]56CCCN5C[C@H](F)C6)nc4c3F)c12 [Example 57, (1-(7-(8-ethyl-7-fluoro-3-hydroxynaphthalen-1-yl)-8-fluoro-2-(((2R,7aS)-2-fluorotetrahydro-1H-pyrrolizin-7a(5H)-yl)methoxy)pyrido[4,3-d]pyrimidin-4-yl)piperidin-4-yl)(4-methyl-1H-pyrazol-1-yl)methanone] | 5580 | 8500 | 96 | 107 | 66 | 200 |
| CCc1c(F)ccc2cc(O)cc(-c3ncc4c(N5CCC(C(=O)n6ccc(N(C)C)n6)CC5)nc(OC[C@@]56CCCN5C[C@H](F)C6)nc4c3F)c12 [Example 58, (3-(dimethylamino)-1H-pyrazol-1-yl)(1-(7-(8-ethyl-7-fluoro-3-hydroxynaphthalen-1-yl)-8-fluoro-2-(((2R,7aS)-2-fluorotetrahydro-1H-pyrrolizin-7a(5H)-yl)methoxy)pyrido[4,3-d]pyrimidin-4-yl)piperidin-4-yl)methanone] | 677 | 427 | 108 | 89 | 221 | 338 |
| CCc1c(F)ccc2cc(O)cc(-c3ncc4c(N5CC6CCC(C5)C6C(=O)n5cccn5)nc(OC[C@@]56CCCN5C[C@H](F)C6)nc4c3F)c12 (stereo partly drawn) [Example 59, ((1R,5S,8S)-3-(7-(8-ethyl-7-fluoro-3-hydroxynaphthalen-1-yl)-8-fluoro-2-(((2R,7aS)-2-fluorotetrahydro-1H-pyrrolizin-7a(5H)-yl)methoxy)pyrido[4,3-d]pyrimidin-4-yl)-3-azabicyclo[3.2.1]octan-8-yl)(1H-pyrazol-1-yl)methanone] | 486 | 27 | 8 | < 2 | < 2 | 372 |
| CCc1c(F)ccc2cc(O)cc(-c3ncc4c(N5CCC(C(=O)n6ccc(OC)n6)CC5)nc(OC[C@@]56CCCN5C[C@H](F)C6)nc4c3F)c12 [Example 61, (1-(7-(8-ethyl-7-fluoro-3-hydroxynaphthalen-1-yl)-8-fluoro-2-(((2R,7aS)-2-fluorotetrahydro-1H-pyrrolizin-7a(5H)-yl)methoxy)pyrido[4,3-d]pyrimidin-4-yl)piperidin-4-yl)(3-methoxy-1H-pyrazol-1-yl)methanone] | 8570 | 2610 | 336 | 136 | 34 | 84 |
| CCc1c(F)ccc2cc(O)cc(-c3ncc4c(N5CCCC(C(=O)n6ccc(C)n6)CC5)nc(OC[C@@]56CCCN5C[C@H](F)C6)nc4c3F)c12 (stereo partly drawn) [Example 63, (1-(7-(8-ethyl-7-fluoro-3-hydroxynaphthalen-1-yl)-8-fluoro-2-(((2R,7aS)-2-fluorotetrahydro-1H-pyrrolizin-7a(5H)-yl)methoxy)pyrido[4,3-d]pyrimidin-4-yl)azepan-4-yl)(3-methyl-1H-pyrazol-1-yl)methanone] | 3250 | 1460 | 96 | 145 | 20 | 40 |
| CCc1c(F)ccc2cc(O)cc(-c3ncc4c(N5CCC(C(=O)n6cc(N(C)C)cn6)CC5)nc(OC[C@@]56CCCN5C[C@H](F)C6)nc4c3F)c12 [Example 64, (4-(dimethylamino)-1H-pyrazol-1-yl)(1-(7-(8-ethyl-7-fluoro-3-hydroxynaphthalen-1-yl)-8-fluoro-2-(((2R,7aS)-2-fluorotetrahydro-1H-pyrrolizin-7a(5H)-yl)methoxy)pyrido[4,3-d]pyrimidin-4-yl)piperidin-4-yl)methanone] | 4600 | 4500 | 13 | 32 | 40 | 119 |
| CCc1c(F)ccc2cc(O)cc(-c3ncc4c(N5CCCC(C(=O)n6ccc(C)n6)C5)nc(OC[C@@]56CCCN5C[C@H](F)C6)nc4c3F)c12 (stereo partly drawn) [Example 65, (1-(7-(8-ethyl-7-fluoro-3-hydroxynaphthalen-1-yl)-8-fluoro-2-(((2R,7aS)-2-fluorotetrahydro-1H-pyrrolizin-7a(5H)-yl)methoxy)pyrido[4,3-d]pyrimidin-4-yl)piperidin-3-yl)(3-methyl-1H-pyrazol-1-yl)methanone] | 415 | 266 | 28 | 17 | 14 | > 10000 |
| C=Cc1ccn(C(=O)C2CCN(c3nc(OC[C@@]45CCCN4C[C@H](F)C5)nc4c(F)c(-c5cc(O)cc6ccc(F)c(CC)c56)ncc34)CC2)n1 [Example 66, (1-(7-(8-ethyl-7-fluoro-3-hydroxynaphthalen-1-yl)-8-fluoro-2-(((2R,7aS)-2-fluorotetrahydro-1H-pyrrolizin-7a(5H)-yl)methoxy)pyrido[4,3-d]pyrimidin-4-yl)piperidin-4-yl)(3-vinyl-1H-pyrazol-1-yl)methanone] | 9020 | 5200 | 57 | 154 | 26 | 141 |
| C#Cc1c(F)ccc2cc(O)cc(-c3ncc4c(N5CCC(C(=O)n6ccc(C)n6)CC5)nc(OC[C@@]56CCCN5C[C@H](F)C6)nc4c3F)c12 [Example 67, (1-(7-(8-ethynyl-7-fluoro-3-hydroxynaphthalen-1-yl)-8-fluoro-2-(((2R,7aS)-2-fluorotetrahydro-1H-pyrrolizin-7a(5H)-yl)methoxy)pyrido[4,3-d]pyrimidin-4-yl)piperidin-4-yl)(3-methyl-1H-pyrazol-1-yl)methanone] | 3080 | 3290 | 51 | 15 | 17 | 113 |
| CCc1c(F)ccc2cc(O)cc(-c3ncc4c(N5CCCCC(C(=O)n6ccc(C)n6)C5)nc(OC[C@@]56CCCN5C[C@H](F)C6)nc4c3F)c12 (stereo partly drawn) [Example 68, (1-(7-(8-ethyl-7-fluoro-3-hydroxynaphthalen-1-yl)-8-fluoro-2-(((2R,7aS)-2-fluorotetrahydro-1H-pyrrolizin-7a(5H)-yl)methoxy)pyrido[4,3-d]pyrimidin-4-yl)azepan-3-yl)(3-methyl-1H-pyrazol-1-yl)methanone] | 34 | 12 | 5 | 10 | 6 | 77 |
